Measured values: the supplement of paper PMC9663587

What was measured:
[1] = compound: CC(=O)O[C@H]1C(=O)[C@@]2(C)[C@H]([C@H](OC(=O)c3ccccc3)[C@]3(O)C[C@H](OC(=O)[C@H](O)[C@@H](NC(=O)c4ccccc4)c4ccccc4)C(C)=C1C3(C)C)[C@]1(OC(C)=O)CO[C@@H]1C[C@@H]2O [Paclitaxel]
[2] = compound: C1=CC2=C(C=CC(=C2)C=C3C(=O)NC(=NCC4=CC=CS4)S3)N=C1 [R0-3306]
[3] = compound: T1, CN1CC[C@H](c2c(O)cc(O)c3c(=O)cc(-c4ccccc4Cl)oc23)[C@H](O)C1 [Flavopiridol]
[4] = compound: CCC1=CN=CN=C1N2CCN(CC2)CC3=NC4=C(N3)C=C(C=C4)C(F)(F)F
[5] = compound: NC1(C(=O)N[C@@H](CCO)c2ccc(Cl)cc2)CCN(c2nc[nH]c3nccc2-3)CC1 [AZD5363]
[6] = compound: T2, CC(=O)c1c(C)c2cnc(Nc3ccc(N4CCN(CCOCCOCCOCCNC(=O)COc5cccc6c5C(=O)N(C5CCC(=O)NC5=O)C6=O)CC4)cn3)nc2n(C2CCCC2)c1=O [BSJ-03-123]
[7] = compound: CO[C@@H](C)Cn1c(=O)n(C)c2cnc3ccc(-c4cncc(C(C)(C)O)c4)cc3c21
[8] = compound: CCOc1cc2ncc(C#N)c(Nc3ccc(OCc4ccccn4)c(Cl)c3)c2cc1NC(=O)/C=C/CN(C)C [Neratinib/HKI272]
[9] = compound: CC(C)Nc1cc(-c2c[nH]c(C(=O)N[C@H](CO)c3cccc(Cl)c3)c2)c(Cl)cn1 [BVD523]
[10] = compound: CCN1CCN(Cc2ccc(Nc3ncc(F)c(-c4cc(F)c5nc(C)n(C(C)C)c5c4)n3)nc2)CC1; assay: GR value, 72 h; higher = faster growth (1 = untreated, <0 = killing);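 further: breast cancer and non-malignant breast epithelial lines, nine half-log doses, viable cells counted by Hoechst and LIVE/DEAD dye imaging versus time-zero plates and DMSO controls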
[11] = compound: C=CC(=O)Nc1ccc(C(=O)Nc2[nH]nc3c2CN(C(=O)N[C@H](CN(C)C)c2ccccc2)C3(C)C)cc1 [YKL-5-124]; assay: as above
[12] = compound: CCc1cnn2c(NCc3ccc[n+]([O-])c3)cc(N3CCCC[C@H]3CCO)nc12; assay: as above
[13] = compound: T1, Flavopiridol; assay: as above
[14] = compound: T2, BSJ-03-123; assay: as above
[15] = compound: CN(C)C/C=C/C(=O)Nc1ccc(C(=O)Nc2cccc(Nc3ncc(Cl)c(-c4c[nH]c5ccccc45)n3)c2)cc1 [THZ1]; assay: as above
[16] = compound: CN(C)C/C=C/C(=O)Nc1ccc(C(=O)N2CCC[C@@H](Nc3ncc(Cl)c(-c4c[nH]c5ccccc45)n3)C2)cc1 [THZ531]; assay: as above
[17] = compound: CN(C)C(=O)c1cc2cnc(Nc3ccc(N4CCNCC4)cn3)nc2n1C1CCCC1 [LEE011/Ribociclib]; assay: as above
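Wherever GR50, 72 h is given: breast cancer and non-malignant breast epithelial cell lines, Deep Dye Drop or Dye Drop imaging, nine half-log doses, GR normalized to time-zero plates and DMSO-only controls.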

With CAL51 the “GR50, 72 h” value [1] was 0.00417 µM, the “GR50, 72 h” value [2] was 8.06 µM and the “GR50, 72 h” value [3] was 0.2 µM. The “GR50, 72 h” value [4] was greater than 10 µM, the “GR50, 72 h” value [5] was greater than 10 µM and the “GR50, 72 h” value [6] was 4.36 µM. For the same cell line, the “GR50, 72 h” value [7] was 0.0113 µM, the “GR50, 72 h” value [8] was 2.25 µM and the “GR50, 72 h” value [9] was greater than 10 µM. The GR value ([10]; 0.001 µM) was 0.966 GR, the GR value ([10]; 0.003162 µM) was 0.882 GR and the GR value ([10]; 0.01 µM) was 0.752 GR. It also gave a GR value ([10]; 0.03162 µM) of 0.569 GR, a GR value ([10]; 0.1 µM) of 0.501 GR and a GR value ([10]; 0.3162 µM) of 0.365 GR. It also gave a GR value ([10]; 1 µM) of 0.207 GR, a GR value ([10]; 3.162 µM) of -0.124 GR and a GR value ([10]; 10 µM) of -0.46 GR. It also gave a GR value ([11]; 0.001 µM) of 0.748 GR, a GR value ([11]; 0.003162 µM) of 0.59 GR and a GR value ([11]; 0.01 µM) of 0.391 GR. The GR value ([11]; 0.03162 µM) was 0.327 GR, the GR value ([11]; 0.1 µM) was 0.314 GR and the GR value ([11]; 0.3162 µM) was 0.236 GR. For the same cell line, the GR value ([11]; 1 µM) was 0.216 GR, the GR value ([11]; 3.162 µM) was 0.165 GR and the GR value ([11]; 10 µM) was -0.0011 GR. It also gave a GR value ([12]; 0.0001 µM) of 0.999 GR, a GR value ([12]; 0.0003162 µM) of 0.954 GR and a GR value ([12]; 0.001 µM) of 1.03 GR. The GR value ([12]; 0.003162 µM) was 0.974 GR, the GR value ([12]; 0.01 µM) was 0.831 GR and the GR value ([12]; 0.03162 µM) was -0.218 GR. For the same cell line, the GR value ([12]; 0.1 µM) was -0.356 GR, the GR value ([12]; 0.3162 µM) was -0.355 GR and the GR value ([12]; 1 µM) was -0.341 GR. It also gave a GR value ([13]; 0.0001 µM) of 0.98 GR, a GR value ([13]; 0.0003162 µM) of 0.944 GR and a GR value ([13]; 0.001 µM) of 0.962 GR. For the same cell line, the GR value ([13]; 0.003162 µM) was 0.909 GR, the GR value ([13]; 0.01 µM) was 0.842 GR and the GR value ([13]; 0.03162 µM) was 0.887 GR. It also gave a GR value ([13]; 0.1 µM) of 0.708 GR, a GR value ([13]; 0.3162 µM) of 0.353 GR and a GR value ([13]; 1 µM) of -0.099 GR. For the same cell line, the GR value ([14]; 0.001 µM) was 0.894 GR, the GR value ([14]; 0.003162 µM) was 0.912 GR and the GR value ([14]; 0.01 µM) was 0.915 GR. For the same cell line, the GR value ([14]; 0.03162 µM) was 0.898 GR, the GR value ([14]; 0.1 µM) was 0.895 GR and the GR value ([14]; 0.3162 µM) was 0.818 GR. For the same cell line, the GR value ([14]; 1 µM) was 0.763 GR, the GR value ([14]; 3.162 µM) was 0.76 GR and the GR value ([14]; 10 µM) was 0.121 GR. For the same cell line, the GR value ([15]; 0.0001 µM) was 1.05 GR, the GR value ([15]; 0.0003162 µM) was 0.971 GR and the GR value ([15]; 0.001 µM) was 0.953 GR. For the same cell line, the GR value ([15]; 0.003162 µM) was 0.953 GR, the GR value ([15]; 0.01 µM) was 0.938 GR and the GR value ([15]; 0.03162 µM) was 0.882 GR. It also gave a GR value ([15]; 0.1 µM) of 0.871 GR, a GR value ([15]; 0.3162 µM) of 0.601 GR and a GR value ([15]; 1 µM) of 0.0924 GR. It also gave a GR value ([16]; 0.0001 µM) of 0.973 GR, a GR value ([16]; 0.0003162 µM) of 0.962 GR and a GR value ([16]; 0.001 µM) of 0.912 GR. For the same cell line, the GR value ([16]; 0.003162 µM) was 0.96 GR, the GR value ([16]; 0.01 µM) was 1.01 GR and the GR value ([16]; 0.03162 µM) was 0.937 GR. The GR value ([16]; 0.1 µM) was 0.904 GR, the GR value ([16]; 0.3162 µM) was 0.786 GR and the GR value ([16]; 1 µM) was 0.543 GR. It also gave a GR value ([17]; 0.001 µM) of 0.899 GR, a GR value ([17]; 0.003162 µM) of 0.874 GR and a GR value ([17]; 0.01 µM) of 0.808 GR. The GR value ([17]; 0.03162 µM) was 0.772 GR, the GR value ([17]; 0.1 µM) was 0.693 GR and the GR value ([17]; 0.3162 µM) was 0.658 GR. For the same cell line, the GR value ([17]; 1 µM) was 0.631 GR, the GR value ([17]; 3.162 µM) was 0.55 GR and the GR value ([17]; 10 µM) was 0.396 GR.
